Assay [1] deals with dopamine, noradrenaline and serotonine reuptake. Briefly: In vitro pharmacology, summary in words over binding and reuptake inhibition. The method, then:
(§1) In vitro affinity for neurotransmitter reuptake sites were either obtained by CEREP (128, rue Danton, 92500 Rueil-Malmaison, France) or at Solvay Pharmaceuticals B. V. (C. J. van Houtenlaan 36, 1381 CP Weesp, The Netherlands), using well documented procedures. Measured were affinities for serotonin (Tatsumi, 1999), norepinephrine (Pacholczyk, 1991) and dopamine reuptake sites (Pristupa, 1994).
(§2) Subsequently, the synaptosomes were exposed to [^3H]-serotonin ([…] final concentration) for 10 min. [^3H]-Serotonine uptake was stopped by filtration with a harvester and the non-incorporated radioactivity was removed by extensive washing. Filter plates with synaptosomes were dehydrated, and the amount of [^3H]-serotonin present was determined by Betaplate liquid scintillation counting.
In vitro functional inhibition of [^3H]-norepinephrine reuptake: male rats (Wistar Hsd/Cpb: WU; 175-200 g) were decapitated, the hypothalamus was rapidly removed and a crude synaptosomal fraction was prepared. […] [^3H]-Norepinephrine uptake was stopped by filtration with a harvester and the non-incorporated radioactivity was removed by an extensive washing programme. The filterplates with synaptosomes were dehydrated and the amount of [^3H]-norepinephrine present was determined by Betaplate liquid scintillation counting. […]

Assay [2] concerns the target T1, [3H]-dopamine reuptake (Rattus norvegicus, UniProt P23977).
T1 construct: the striatum was rapidly removed and a crude synaptosomal fraction (P2) was prepared; from tissue; host or cells: rat striatum, crude P2 synaptosomal fraction
The assay is described as follows: In vitro functional inhibition of [3H]-dopamine reuptake, striatum synaptosomes. The conditions noted are these: read-out: Dopamine inhibition pIC50 (converted). In kind it is biochemical. The method, then:
In vitro functional inhibition of [^3H]-dopamine reuptake: male rats (Wistar Hsd/Cpb: WU; 175-200 g) were decapitated; the striatum was rapidly removed and a crude synaptosomal fraction (P2) was prepared by homogenization and centrifugation. Synaptosomes were pre-incubated in absence or presence of the test compound for 15 min at 37° C., in a medium containing the monoamine oxidase inhibitor pargyline (7×10^−6 M) (Coyle, 1969). Subsequently, [^3H]-dopamine (2×10^−7 M final concentration) was added and incubation was continued for 10 min. [^3H]-dopamine uptake was stopped by filtration and the synaptosomes were washed four times with phosphate buffered saline. The amount of [^3H]-dopamine in the synaptosomes was determined by Betaplate liquid scintillation counting. […] Inhibition of DA uptake was performed in duplicate.

The target in assay [3] is norepinephrine reuptake sites (Homo sapiens, UniProt P23975). The assay is described as follows: In vitro affinity for norepinephrine reuptake sites. In kind it is binding. Particulars: read-out: Noradrenaline binding pKi (converted).
Chain of norepinephrine reuptake sites (P23975 whole entry): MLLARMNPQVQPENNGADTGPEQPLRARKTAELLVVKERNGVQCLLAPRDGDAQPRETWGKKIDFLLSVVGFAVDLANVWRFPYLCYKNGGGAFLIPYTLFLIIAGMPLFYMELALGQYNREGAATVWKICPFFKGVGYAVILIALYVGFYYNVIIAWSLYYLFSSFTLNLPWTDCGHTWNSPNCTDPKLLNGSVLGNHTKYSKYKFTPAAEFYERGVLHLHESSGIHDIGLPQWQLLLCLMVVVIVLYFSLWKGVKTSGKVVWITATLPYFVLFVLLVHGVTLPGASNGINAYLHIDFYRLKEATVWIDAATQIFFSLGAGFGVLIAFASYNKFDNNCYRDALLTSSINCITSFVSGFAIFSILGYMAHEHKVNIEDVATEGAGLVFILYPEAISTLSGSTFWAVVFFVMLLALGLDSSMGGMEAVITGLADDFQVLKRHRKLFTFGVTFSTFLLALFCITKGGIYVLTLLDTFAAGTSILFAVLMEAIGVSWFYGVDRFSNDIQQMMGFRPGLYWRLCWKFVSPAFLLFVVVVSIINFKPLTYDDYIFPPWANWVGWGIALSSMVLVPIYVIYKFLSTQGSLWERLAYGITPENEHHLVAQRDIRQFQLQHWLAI
Assay [4] addresses serotonin reuptake sites (Homo sapiens, UniProt P31645). The assay is described as follows: In vitro affinity for serotonin reuptake sites. The conditions noted are these: read-out: Serotonine binding pKi (converted). In kind it is binding.
Assay [5] has as its target T2, [3H]-serotonin reuptake (Rattus norvegicus, UniProt P31652).
T2 construct: the cerebral hemispheres were rapidly removed, and a P2-synaptosomal fraction was prepared; from tissue; host or cells: rat cerebral hemispheres, P2 synaptosomal fraction
Briefly: In vitro functional inhibition of [3H]-serotonin reuptake, cerebral hemisphere synaptosomes. In kind it is biochemical. Particulars: read-out: Serotonine inhibition pIC50 (converted). The procedure:
as §2

For assay [6], the target named is dopamine reuptake sites (Homo sapiens, UniProt Q01959). Briefly: In vitro affinity for dopamine reuptake sites. In kind it is binding. Particulars: read-out: Dopamine binding pKi (converted).
Chain of dopamine reuptake sites (Q01959 whole entry): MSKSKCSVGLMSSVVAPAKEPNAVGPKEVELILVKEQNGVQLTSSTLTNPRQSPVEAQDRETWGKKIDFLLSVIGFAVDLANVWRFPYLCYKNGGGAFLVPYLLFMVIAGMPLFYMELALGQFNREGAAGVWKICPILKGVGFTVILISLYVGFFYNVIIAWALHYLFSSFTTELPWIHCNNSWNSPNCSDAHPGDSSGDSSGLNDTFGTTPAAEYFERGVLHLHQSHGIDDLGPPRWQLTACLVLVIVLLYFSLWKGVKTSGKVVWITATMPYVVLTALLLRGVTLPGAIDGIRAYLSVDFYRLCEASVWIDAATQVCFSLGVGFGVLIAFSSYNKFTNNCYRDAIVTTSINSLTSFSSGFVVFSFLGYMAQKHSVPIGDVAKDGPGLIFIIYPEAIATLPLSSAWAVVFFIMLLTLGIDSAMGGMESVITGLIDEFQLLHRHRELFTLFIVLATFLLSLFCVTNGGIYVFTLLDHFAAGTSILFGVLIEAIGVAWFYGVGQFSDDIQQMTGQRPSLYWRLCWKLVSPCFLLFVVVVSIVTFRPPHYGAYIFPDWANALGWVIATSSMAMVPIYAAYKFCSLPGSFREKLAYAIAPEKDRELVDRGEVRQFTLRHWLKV
From the text: as §1

For assay [7], the target named is T3, [3H]-norepinephrine reuptake (Rattus norvegicus, UniProt Q63380).
T3 construct: the hypothalamus was rapidly removed and a crude synaptosomal fraction was prepared; from tissue; host or cells: rat hypothalamus, crude synaptosomal fraction
T3 sequence (Q63380 1-617): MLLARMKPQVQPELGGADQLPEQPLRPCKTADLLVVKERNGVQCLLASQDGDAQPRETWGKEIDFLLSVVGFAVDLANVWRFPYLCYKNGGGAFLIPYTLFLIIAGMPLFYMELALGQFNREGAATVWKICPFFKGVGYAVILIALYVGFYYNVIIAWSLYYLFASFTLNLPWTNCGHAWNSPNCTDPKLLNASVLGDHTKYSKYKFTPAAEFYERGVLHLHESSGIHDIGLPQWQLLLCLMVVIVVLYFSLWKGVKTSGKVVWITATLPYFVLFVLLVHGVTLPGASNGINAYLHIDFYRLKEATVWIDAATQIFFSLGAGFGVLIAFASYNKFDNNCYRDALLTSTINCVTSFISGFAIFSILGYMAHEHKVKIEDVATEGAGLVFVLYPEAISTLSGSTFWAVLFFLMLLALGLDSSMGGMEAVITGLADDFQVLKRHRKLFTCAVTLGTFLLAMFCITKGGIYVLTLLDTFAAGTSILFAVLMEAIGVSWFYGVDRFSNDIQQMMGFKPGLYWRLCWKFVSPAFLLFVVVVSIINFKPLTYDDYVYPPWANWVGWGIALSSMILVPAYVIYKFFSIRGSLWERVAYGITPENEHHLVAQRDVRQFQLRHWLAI
Briefly: In vitro functional inhibition of [3H]-norepinephrine reuptake, hypothalamus synaptosomes. In kind it is biochemical. The conditions noted are these: read-out: Noradrenaline inhibition pIC50 (converted). The method, then: In vitro functional inhibition of [^3H]-norepinephrine reuptake: male rats (Wistar Hsd/Cpb: WU; 175-200 g) were decapitated, the hypothalamus was rapidly removed and a crude synaptosomal fraction was prepared. Synaptosomes were pre-incubated in absence or presence of the test compound for 10 min at 37° C., in a medium containing the MAO inhibitor pargyline (7 μM). Subsequently, the synaptosomes were exposed to [^3H]-norepinephrine ([…] final concentration) for 15 min. [^3H]-Norepinephrine uptake was stopped by filtration with a harvester and the non-incorporated radioactivity was removed by an extensive washing programme. The filterplates with synaptosomes were dehydrated and the amount of [^3H]-norepinephrine present was determined by Betaplate liquid scintillation counting. […] Test compounds, 10^−2 M dissolved in DMSO, were diluted in Krebs Ringer buffer to test concentrations of 10^−8-10^−5 M. Further experimental details were as described (Coyle, 1969).

The values that follow come from patent US7696383B2 (Solvay Pharmaceuticals B.V., priority 2007, dated 2010).

The structures appear in SMILES notation.

T1 sequence (P23977 whole entry): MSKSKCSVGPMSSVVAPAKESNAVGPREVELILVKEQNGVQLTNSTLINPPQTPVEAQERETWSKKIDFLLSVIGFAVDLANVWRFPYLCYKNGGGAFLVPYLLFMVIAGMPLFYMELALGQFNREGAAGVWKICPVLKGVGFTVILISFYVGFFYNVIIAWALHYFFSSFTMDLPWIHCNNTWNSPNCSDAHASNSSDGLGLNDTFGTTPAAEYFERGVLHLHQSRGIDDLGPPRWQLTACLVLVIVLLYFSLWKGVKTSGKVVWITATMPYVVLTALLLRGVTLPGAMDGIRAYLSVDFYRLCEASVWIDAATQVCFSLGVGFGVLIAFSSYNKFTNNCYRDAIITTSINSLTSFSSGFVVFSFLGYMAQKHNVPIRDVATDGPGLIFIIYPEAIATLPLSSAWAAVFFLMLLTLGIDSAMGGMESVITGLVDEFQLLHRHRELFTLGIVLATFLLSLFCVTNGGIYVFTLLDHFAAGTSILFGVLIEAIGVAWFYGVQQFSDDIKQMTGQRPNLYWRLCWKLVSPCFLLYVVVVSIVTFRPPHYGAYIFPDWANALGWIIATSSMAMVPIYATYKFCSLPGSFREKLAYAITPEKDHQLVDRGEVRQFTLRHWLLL
T2 sequence (P31652 whole entry): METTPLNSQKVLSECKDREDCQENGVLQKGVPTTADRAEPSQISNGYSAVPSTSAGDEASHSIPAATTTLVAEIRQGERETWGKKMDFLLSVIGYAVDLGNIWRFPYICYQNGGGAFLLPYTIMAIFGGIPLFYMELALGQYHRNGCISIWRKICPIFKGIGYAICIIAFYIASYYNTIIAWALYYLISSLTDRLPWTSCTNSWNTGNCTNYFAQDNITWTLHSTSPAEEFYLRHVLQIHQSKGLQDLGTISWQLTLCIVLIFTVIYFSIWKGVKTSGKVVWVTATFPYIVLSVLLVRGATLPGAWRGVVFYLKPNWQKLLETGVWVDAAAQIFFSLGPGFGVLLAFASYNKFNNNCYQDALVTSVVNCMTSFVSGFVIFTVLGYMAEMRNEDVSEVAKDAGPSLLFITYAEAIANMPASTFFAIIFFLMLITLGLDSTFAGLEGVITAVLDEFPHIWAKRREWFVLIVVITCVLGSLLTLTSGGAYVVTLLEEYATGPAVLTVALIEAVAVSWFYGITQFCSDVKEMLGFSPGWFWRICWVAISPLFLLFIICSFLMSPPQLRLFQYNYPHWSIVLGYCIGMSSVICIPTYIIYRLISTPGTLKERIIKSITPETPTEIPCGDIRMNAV
Chain of serotonin reuptake sites (P31645 whole entry): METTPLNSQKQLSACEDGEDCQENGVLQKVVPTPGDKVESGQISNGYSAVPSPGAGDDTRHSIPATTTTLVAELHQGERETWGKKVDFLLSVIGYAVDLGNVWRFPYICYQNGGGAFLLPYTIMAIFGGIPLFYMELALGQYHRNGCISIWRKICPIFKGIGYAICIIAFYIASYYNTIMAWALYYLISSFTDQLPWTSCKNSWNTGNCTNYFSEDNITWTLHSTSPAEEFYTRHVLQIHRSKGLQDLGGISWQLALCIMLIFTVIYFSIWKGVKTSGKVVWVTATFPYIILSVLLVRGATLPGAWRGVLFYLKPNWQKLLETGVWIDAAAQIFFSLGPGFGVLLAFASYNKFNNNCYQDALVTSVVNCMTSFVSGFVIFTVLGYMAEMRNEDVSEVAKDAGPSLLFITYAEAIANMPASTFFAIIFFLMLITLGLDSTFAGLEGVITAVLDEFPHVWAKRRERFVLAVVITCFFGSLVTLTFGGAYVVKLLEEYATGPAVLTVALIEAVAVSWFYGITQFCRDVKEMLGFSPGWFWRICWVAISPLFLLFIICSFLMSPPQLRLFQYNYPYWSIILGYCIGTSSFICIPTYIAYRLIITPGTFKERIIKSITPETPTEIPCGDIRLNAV

Turning to `CN(C)CC(c1ccc(O)cc1)C1(O)CCCCC1` (racemic) [O-desmethylvenlafaxine, (R,S)-1-[2-(dimethylamino)-1-(4-hydroxyphenyl)ethyl]-cyclohexanol], the “In vitro activity, in words” value in assay [1] is given as “equipotent with venlafaxine”.
As for `COc1ccc([C@H](C[N+](C)(C)[O-])C2(O)CCCCC2)cc1` [(R)-venlafaxine-N-oxide, R-Venlafaxine N-oxide], the values for the IC50 in assay [2], in assay [5] and in assay [7] were above 31.6 µM, 20 µM and 39.8 µM, respectively. In addition, the Ki in assay [3] is above 31.6 µM; in assay [4] it was 7.94 µM; in assay [6] it was above 31.6 µM.
As to `CN(C)C[C@@H](c1ccc(O)cc1)C1(O)CCCCC1` [(R)—O-desmethyl-venlafaxine, O-desmethyl-R-Venlafaxine, reference compound], the values for the IC50 in assay [2] and in assay [7] were 5.01 µM and 0.398 µM, respectively.
Turning to `C[N+](C)([O-])C[C@@H](c1ccc(O)cc1)C1(O)CCCCC1` [(R)—O-desmethyl-venlafaxine-N-oxide, O-Desmethyl-R-venlafaxine N-oxide], the results for the IC50 in assay [2], in assay [5] and in assay [7] were above 31.6 µM, 39.8 µM and above 31.6 µM, respectively. Further, the Ki in assay [3] was above 31.6 µM; in assay [4], 10 µM; in assay [6], above 31.6 µM.
Consider `COc1ccc([C@@H](C[N+](C)(C)[O-])C2(O)CCCCC2)cc1` [(S)-venlafaxine-N-oxide, S-Venlafaxine N-oxide], for which the IC50 in assay [2] is above 31.6 µM; in assay [5] it was 15.8 µM; in assay [7], above 31.6 µM. Further, the figures for the Ki in assay [3], in assay [4] and in assay [6] were above 31.6 µM, 6.31 µM and above 31.6 µM, respectively.
Consider `CN(C)C[C@H](c1ccc(O)cc1)C1(O)CCCCC1` [(S)—O-desmethyl-venlafaxine, O-desmethyl-S-Venlafaxine, reference compound], for which the IC50 in assay [2] is 10 µM; in assay [7] it was 0.398 µM.
As for `C[N+](C)([O-])C[C@H](c1ccc(O)cc1)C1(O)CCCCC1` [(S)—O-desmethyl-venlafaxine-N-oxide, O-desmethyl-S-venlafaxine N-oxide], the IC50 in assay [2] was above 31.6 µM; in assay [5] it was 25.1 µM; in assay [7], above 31.6 µM. Besides, the Ki was above 31.6 µM in assay [3], 12.6 µM in assay [4] and above 31.6 µM in assay [6].
